# Test results: patent publication US20200270575A1, “Culture System for Expanding Hematopoietic Stem Cells and/or Hematopoietic Progenitor Cells and the Method Thereof, Hematopoietic Stem Cells and Hematopoietic Progenitor Cells” (NEWISH TECHNOLOGY (BEIJING) CO., LTD., priority 2017, published 2020)
# Experiments:
# [1] = tested on: cord blood-derived CD34+ cells; assay: In vitro expansion of CD34+CD45RA− cells, 7-day culture of cord blood-derived CD34+ cells; format: cell-based, human
# Method: The material was derived from cord blood waste supplied by the company, and cord blood-derived CD34+ cells were isolated by magnetic bead sorting (MACS) as cultured materials in the following examples.
# CD34+ cells were cultured based on the culture conditions of Table 1. The experimental group (the small chemical molecule is SP600125) and the control group (the small chemical molecule is replaced by DMSO, the volume ratio of DMSO: medium is 1:10000) were placed in the cell incubator at 37° C. with the concentration of 5% carbon dioxide, and half amount of the medium was changed every 2 days.
# On the 7th day of the culturing, the ratio of CD34+CD45RA−cells was measured, and the fold expansion was counted and calculated. The CD34+CD45RA− in the experimental group was about 15 times in the fold expansion, while the CD34+CD45RA− in the control group was about 5 times in fold expansion.
# immunodeficient mice = assay: Transplantation experiment in vivo: reconstitution of human cells in bone marrow and peripheral blood after 4 months; details: for reconstruction effect of experimental group relative to control group (DMSO): 4 months; for blood cells in human peripheral blood (reconstitution proportion of peripheral blood) / reconstruction proportion of human blood cells in bone marrow (CD45+ cells): 4 months after transplantation
# Method: On the 7th day of the culturing, the transplantation experiment in vivo was carried out at the meantime. The expanded CD34+ cells in the experimental group and the control group were respectively injected into the immunodeficient mice by bone marrow transplantation. Each group contain 8 mice, and each mouse was injected with the total cells expanded from 5000 original CD34+ cells. The reconstitution ratio of human cells in peripheral blood and bone marrow of immunodeficient mice were measured after 4 months. In the experimental group, the reconstruction proportion of human blood cells in bone marrow (CD45+ cells) reached about 50%, and the blood cells in human peripheral blood reached about 5%. In the control group, the reconstruction proportion of human blood cells in bone marrow reached about 20%, and the blood cells in human peripheral blood reached about 1%. The reconstruction effect of the experimental group was about 4 times higher than that of the control group after a general comparison.
# LT-HSC = details: background, 2014 report; cited from earlier work
# immunodeficiency mice = details: background, 2010 report; cited from earlier work
# [2] = Example 2: cells expanded with 4 μM
# [3] = Example 3: cells expanded with 2 μM
# [4] = Example 7: cells expanded with 5 μM
# [5] = Example 5: cells expanded with 1 μM
# [6] = Example 4: cells expanded with 5 μM
# [7] = Example 6: cells expanded with 0.5 μM
compound,measurement,setting,value
O=C1c2ccccc2-c2n[nH]c3cccc1c23 [SP600125],fold expansion of CD34+CD45RA− cells at day 7 relative to the primary cells,"[1]; Example 1: 4 μM, SCF 100, FL 100, TPO 50 ng/ml, LDL 10 μg/ml",about 15 times
same,CD34+CD45RA− in the experimental group relative to control group (DMSO),"[1]; Example 2: 4 μM, SCF 50, FL 50, TPO 25 ng/ml, LDL 5 μg/ml, day 7",2.5 times
same,proliferation amount of CD34+CD45RA− in the experimental group relative to control group (DMSO),"[1]; Example 3: 2 μM, SCF 20, FL 50, TPO 20 ng/ml, LDL 5 μg/ml, day 7",2 times
same,proliferation amount of CD34+CD45RA− in the experimental group relative to control group (DMSO),"[1]; Example 7: 5 μM, SCF 500, FL 100, TPO 20 ng/ml, LDL 10 μg/ml, day 7",2.3 times
same,reconstruction effect of experimental group relative to control group (DMSO),"immunodeficient mice; Example 1: 4 μM, general comparison",about 4 times
same,blood cells in human peripheral blood (reconstitution proportion of peripheral blood),immunodeficient mice; Example 1: cells expanded with 4 μM,about 5%
same,reconstruction proportion of human blood cells in bone marrow (CD45+ cells),"immunodeficient mice; Example 1: cells expanded with 4 μM, cells from 5000 original CD34+ cells per mouse",about 50%
same,reconstruction effect of experimental group relative to control group (DMSO),"immunodeficient mice; Example 2: 4 μM, general comprehensive comparison",about 6 times
same,blood cells in human peripheral blood (reconstitution proportion of peripheral blood),immunodeficient mice; [2],about 9%
same,reconstruction proportion of human blood cells in bone marrow (CD45+ cells),immunodeficient mice; [2],about 70%
same,reconstruction effect of experimental group relative to control group (DMSO),"immunodeficient mice; Example 3: 2 μM, general comparison",about 4 times
same,blood cells in human peripheral blood (reconstitution proportion of peripheral blood),immunodeficient mice; [3],about 4%
same,reconstruction proportion of human blood cells in bone marrow (CD45+ cells),immunodeficient mice; [3],about 40%
same,reconstruction effect of experimental group relative to control group (DMSO),"immunodeficient mice; Example 7: 5 μM, general comparison",about 5.5 times
same,blood cells in human peripheral blood (reconstitution proportion of peripheral blood),immunodeficient mice; [4],about 7.5%
same,reconstruction proportion of human blood cells in bone marrow (CD45+ cells),immunodeficient mice; [4],about 58%
Cn1nnc(-c2ccc3c(c2)[nH]c2nc(Cc4ccccc4)nc(NC4CCC(N)CC4)c23)n1 (stereo not drawn) [UM171],maintenance of the function of hematopoietic reconstitution,LT-HSC,up to 6 months
CN(C)C/C=C/C(=O)Nc1cccc(C(=O)Nc2ccc(Nc3nccc(-c4cccnc4)n3)cc2)c1 [JNK-IN-7],proliferation amount of CD34+CD45RA− in the experimental group relative to control group (DMSO),"[1]; Example 5: 1 μM, SCF 200, FL 50, TPO 5 ng/ml, LDL 10 μg/ml, day 7",2.5 times
same,reconstruction effect of experimental group relative to control group (DMSO),"immunodeficient mice; Example 5: 1 μM, general comparison",about 5 times
same,blood cells in human peripheral blood (reconstitution proportion of peripheral blood),immunodeficient mice; [5],about 8.5%
same,reconstruction proportion of human blood cells in bone marrow (CD45+ cells),immunodeficient mice; [5],about 58%
N#C/C(=C1/Nc2ccccc2S1)c1ccnc(NCCc2cccnc2)n1 [AEG-3482],proliferation amount of CD34+CD45RA− in the experimental group relative to control group (DMSO),"[1]; Example 4: 5 μM, SCF 10, FL 100, TPO 10 ng/ml, LDL 2 μg/ml, day 7",2.3 times
same,reconstruction effect of experimental group relative to control group (DMSO),"immunodeficient mice; Example 4: 5 μM, general comparison",about 2.5 times
same,blood cells in human peripheral blood (reconstitution proportion of peripheral blood),immunodeficient mice; [6],about 3.5%
same,reconstruction proportion of human blood cells in bone marrow (CD45+ cells),immunodeficient mice; [6],about 35%
CN(C)C/C=C/C(=O)Nc1cccc(C(=O)Nc2ccc(Nc3nccc(-c4c(-c5ccccc5)nn5ccccc45)n3)cc2)c1 [JNK-IN-11],proliferation amount of CD34+CD45RA− in the experimental group relative to control group (DMSO),"[1]; Example 6: 0.5 μM, SCF 300, FL 100, TPO 20 ng/ml, LDL 10 μg/ml, day 7",2.8 times
same,reconstruction effect of experimental group relative to control group (DMSO),"immunodeficient mice; Example 6: 0.5 μM, general comparison",about 8 times
same,blood cells in human peripheral blood (reconstitution proportion of peripheral blood),immunodeficient mice; [7],about 12.5%
same,reconstruction proportion of human blood cells in bone marrow (CD45+ cells),immunodeficient mice; [7],about 78%
CC(C)n1cnc2c(NCCc3ccc(O)cc3)nc(-c3csc4ccccc34)nc21 [SR1],increase of the amount of exogenous hematopoietic cells detected in immunodeficiency mice,immunodeficiency mice,17 times
